The source of these data is patent US20250320228A1, “PYRIDO[3,2-D]PYRIMIDINES AS HPK1 INHIBITORS” (Merck Patent GmbH, priority 2022, published 2025).

The subject of one assay is HPK1 pSLP76 (Ser376). As to the kind of experiment: Cellular assay phospho-SLP-76 (Ser376). It counts as cell-based, human. The note with it: read-out: HPK1 pSLP76 IC50. A digest of the protocol:
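Jurkat (human) and EL-4 (mouse) cells preincubated 60 min with compound, then stimulated with αCD3/αCD28 Dynabeads at 37 °C (Jurkat 15 min; EL-4 30 min). SLP76 Ser376 phosphorylation in lysate read by AlphaLISA SureFire (Jurkat) or HTRF (EL-4, 19 h); IC50 from 10-point dilutions.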

In assay [1] the target is full-length human HPK1 (MAP4K1) (Homo sapiens (Human), UniProt Q92918). As to the kind of experiment: HPK1 kinase assay (biochemical, ADP-Glo). The note with it: read-out: HPK1 enzymatic IC50. A digest of the protocol:
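GST-tagged full-length human HPK1 from Sf21 baculovirus cells (3.2 nM in enzyme mix; 50 mM HEPES pH 7.5, 10 mM MgCl2) was preincubated 15 min at RT with compound. Reaction was started with Start-Mix (10 μM ATP, 3.235 μM MBP) and run 120 min. ADP was read by ADP-Glo luminescence; IC50 came from 10-point % inhibition.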
(In general: In ADP-Glo the light output rises with the ADP produced.)

Setting [2] is: SLP76 Ser376 phosphorylation after αCD3/αCD28 stimulation, Jurkat (human) or EL-4 (mouse) cells, table does not say which.
[3] abbreviates: GST-HPK1 3.2 nM, 10 μM ATP, MBP substrate, ADP-Glo.

Like-named read-outs stand apart in the source and are kept apart here.

Sequence of full-length human HPK1 (MAP4K1) (Q92918 whole entry): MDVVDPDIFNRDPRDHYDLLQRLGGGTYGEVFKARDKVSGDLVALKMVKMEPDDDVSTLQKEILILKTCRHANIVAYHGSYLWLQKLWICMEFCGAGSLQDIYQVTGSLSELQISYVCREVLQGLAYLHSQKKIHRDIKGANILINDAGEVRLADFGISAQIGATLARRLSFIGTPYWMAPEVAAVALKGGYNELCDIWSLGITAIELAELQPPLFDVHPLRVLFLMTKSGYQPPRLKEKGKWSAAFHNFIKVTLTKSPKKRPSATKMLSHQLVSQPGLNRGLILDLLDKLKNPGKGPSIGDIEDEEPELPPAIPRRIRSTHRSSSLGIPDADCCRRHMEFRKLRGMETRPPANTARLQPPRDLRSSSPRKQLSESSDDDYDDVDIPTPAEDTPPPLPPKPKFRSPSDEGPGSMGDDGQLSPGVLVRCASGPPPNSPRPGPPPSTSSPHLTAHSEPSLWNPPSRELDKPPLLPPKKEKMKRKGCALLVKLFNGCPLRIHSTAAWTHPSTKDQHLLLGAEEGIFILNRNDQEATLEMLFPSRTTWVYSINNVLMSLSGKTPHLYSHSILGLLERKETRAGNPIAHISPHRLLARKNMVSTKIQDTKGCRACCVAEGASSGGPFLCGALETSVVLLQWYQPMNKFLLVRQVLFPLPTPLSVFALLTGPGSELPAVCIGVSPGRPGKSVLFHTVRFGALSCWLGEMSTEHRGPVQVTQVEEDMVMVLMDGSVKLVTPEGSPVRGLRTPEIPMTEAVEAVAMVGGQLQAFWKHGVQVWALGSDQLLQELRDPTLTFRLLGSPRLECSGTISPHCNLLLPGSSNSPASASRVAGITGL

As to `NC(=O)c1cc(-c2ccc(O[C@H]3CN4CCC3CC4)cc2)nc2c(N[C@H]3CCCNC3)ncnc12` [Example 50, 4-(((S)-piperidin-3-yl)amino)-6-(4-(((R)-quinuclidin-3-yl)oxy)phenyl)pyrido[3,2-d]pyrimidine-8-carboxamide], the IC50 (as a rule, the concentration that gives 50% inhibition) is > 1000 nM in the assay with HPK1 pSLP76 (Ser376) (Homo sapiens, Jurkat) and < 100 nM in assay [1].
Consider `COCCOc1ccc(-c2cc(C(N)=O)c3ncnc(N[C@H]4CCCNC4)c3n2)cc1` [Example 24, (S)-6-(4-(2-methoxyethoxy)phenyl)-4-(piperidin-3-ylamino) pyrido[3,2-d]pyrimidine-8-carboxamide], for which the IC50 was < 500 nM in the assay on HPK1 pSLP76 (Ser376) (setting [2]) and < 100 nM in assay [1] (setting [3]).
The like results for `CC(C)(O)COc1ccc(-c2cc(C(N)=O)c3ncnc(N[C@@H]4CNC[C@@H](F)C4)c3n2)cc1` [Example 12, 4-(((3S,5S)-5-fluoropiperidin-3-yl)amino)-6-(4-(2-hydroxy-2-methylpropoxy)phenyl)pyrido[3,2-d]pyrimidine-8-carboxamide] were, in that order, < 500 nM and < 100 nM.
Turning to `NC(=O)c1cc(-c2ccc(OCC3(O)CC3)cc2)nc2c(N[C@@H]3CNC[C@@H](F)C3)ncnc12` [Example 34, 4-(((3S,5S)-5-fluoropiperidin-3-yl)amino)-6-(4-((1-hydroxycyclopropyl)methoxy)phenyl)pyrido[3,2-d]pyrimidine-8-carboxamide], the IC50 in the assay with HPK1 pSLP76 (Ser376) (Homo sapiens, Jurkat) was < 500 nM; in assay [1], < 100 nM.
Regarding `NC(=O)c1cc(-c2cnn(CC(F)F)c2)nc2c(N[C@H]3CCCNC3)ncnc12` [Example 81, 6-[1-(2,2-difluoroethyl)-1H-pyrazol-4-yl]-4-{[(3S)-piperidin-3-yl]amino}pyrido[3,2-d]pyrimidine-8-carboxamide], the IC50 was > 1000 nM with HPK1 pSLP76 (Ser376) (setting [2]) and < 100 nM in assay [1] (setting [3]).
The corresponding values for `CC(=O)c1ccc(-c2cc(C(N)=O)c3ncnc(N[C@@H]4CNC[C@@H](F)C4)c3n2)s1` [Example 5, 6-(5-acetylthiophen-2-yl)-4-(((3S,5S)-5-fluoropiperidin-3-yl)amino)pyrido[3,2-d]pyrimidine-8-carboxamide] are < 500 nM and < 100 nM.
The corresponding values for `NC(=O)c1cc(-c2ccc(CN3CC4CC(C3)O4)cc2)nc2c(N[C@H]3CCCNC3)ncnc12` [Example 63, 6-(4-[6-oxa-3-azabicyclo [3.1.1]heptan-3-ylmethyl]phenyl)-4-[(3S)-piperidin-3-ylamino]pyrido[3,2-d]pyrimidine-8-carboxamide] are < 500 nM and < 100 nM.
The like results for `CCn1cc(-c2cc(C(N)=O)c3ncnc(N[C@@H]4CNC[C@@H](F)C4)c3n2)c(C)n1` [Example 9, 6-(1-ethyl-3-methyl-1H-pyrazol-4-yl)-4-(((3S,5S)-5-fluoropiperidin-3-yl)amino)pyrido[3,2-d]pyrimidine-8-carboxamide] were, in that order, < 500 nM and < 100 nM.
For the compound `NC(=O)c1cc(-c2ccc(CN3CCOCC3)cc2)nc2c(N[C@H]3CCCNC3)ncnc12` [Example 30, 6-[4-(morpholin-4-ylmethyl)phenyl]-4-[(3S)-piperidin-3-ylamino]pyrido[3,2-d]pyrimidine-8-carboxamide], the values for the IC50 (in the assay with HPK1 pSLP76 (Ser376) (setting [2]); in assay [1] (setting [3])) were < 500 nM and < 100 nM, respectively.
With `NC(=O)c1cc(-c2ccc(F)cc2)nc2c(N[C@H]3CCCNC3)ncnc12` [Example 76, 6-(4-fluorophenyl)-4-{[(3S)-piperidin-3-yl]amino}pyrido[3,2-d]pyrimidine-8-carboxamide], the IC50 in the assay with HPK1 pSLP76 (Ser376) (setting [2]) is < 500 nM; in assay [1] (setting [3]), < 100 nM.
On to `NC(=O)c1cc(-c2ccc(CN3CCO[C@H](C(F)(F)F)C3)cc2)nc2c(N[C@H]3CCCNC3)ncnc12` [Example 57, 4-[(3S)-piperidin-3-ylamino]-6-(4-[[(2S)-2(trifluoromethyl)morpholin-4-yl]methyl]phenyl) pyrido [3,2-d]pyrimidine-8-carboxamide], for which the IC50 in the assay with HPK1 pSLP76 (Ser376) (setting [2]) was < 500 nM; in assay [1] (setting [3]), < 100 nM.
